IC50 data for 18 compounds are collected here from ChEMBL document CHEMBL1146614, “High-affinity thrombin receptor (PAR-1) ligands: a new generation of indole-based peptide mimetic antagonists with a basic amine at the C-terminus” (Bioorg Med Chem Lett, 2003).

The nature of assay [1]: Ability to block U-46,619 (0.3 uM)-induced platelet aggregation. The class given is functional.
Assay [2] can be described thus: Ability to block TRAP-6 (2 uM)-induced platelet aggregation. The class given is functional.
Assay [3] can be described thus: Ability to block collagen (3 ug/mL)-induced platelet aggregation. The class given is functional.
Assay [4] in a line: Ability to block thrombin (0.15 nM)-induced platelet aggregation. In kind it is functional.
Assay [5] has as its target T1, Proteinase-activated receptor 1 (Homo sapiens, UniProt P25116).
T1 sequence (P25116 whole entry): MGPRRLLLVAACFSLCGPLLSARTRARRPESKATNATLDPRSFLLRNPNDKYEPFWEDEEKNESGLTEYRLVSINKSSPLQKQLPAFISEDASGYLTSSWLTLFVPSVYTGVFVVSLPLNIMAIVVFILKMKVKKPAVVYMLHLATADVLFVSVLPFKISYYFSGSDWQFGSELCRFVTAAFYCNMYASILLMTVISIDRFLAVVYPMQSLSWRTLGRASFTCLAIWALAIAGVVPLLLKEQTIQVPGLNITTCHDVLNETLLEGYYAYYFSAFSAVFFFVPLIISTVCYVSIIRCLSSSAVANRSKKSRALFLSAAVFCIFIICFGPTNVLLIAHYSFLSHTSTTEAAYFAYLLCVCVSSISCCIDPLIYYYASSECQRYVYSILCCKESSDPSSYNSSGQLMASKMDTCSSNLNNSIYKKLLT
The experiment in a line: Ability to inhibit the binding of [3H]S-(p-F-Phe)-homoarginine-L-homoarginine-KY-NH2 to thrombin receptor on the membranes of CHRF-288-11 cells.

Assay [6] is described as follows: Ability to block U-46,619 (0.3 uM)-induced platelet aggregation; inactive at a concentration of 50 uM. The class given is functional.

Usually pIC50 stands for the negative decadic logarithm of the IC50, by convention in mol/L. A lower pIC50 goes with a large IC50.

The structures appear in SMILES notation. pIC50: −log10 of the molar value.

`NCCC[C@H](NC(=O)[C@H](Cc1ccc(F)c(F)c1)NC(=O)Nc1ccc2c(CN3CCCC3)cn(Cc3c(Cl)cccc3Cl)c2c1)C(=O)NCCN1CCCC1`: the pIC50 in assay [1] is 4.66; in assay [2], 7.22; in assay [3], 4.80; in assay [4], 6.60; in assay [5] it was 6.51.

For the compound `NCC[C@H](NC(=O)[C@H](Cc1ccc(F)c(F)c1)NC(=O)Nc1ccc2c(CN3CCCC3)cn(Cc3c(Cl)cccc3Cl)c2c1)C(=O)NCCc1ccccn1`, the pIC50 in assay [1] is 4.99; in assay [2], 6.82; in assay [3], 5.18; in assay [4], 6.06; in assay [5], 6.30.

For `CSCC[C@H](NC(=O)[C@H](Cc1ccc(F)c(F)c1)NC(=O)Nc1ccc2c(CN3CCCC3)cn(Cc3c(Cl)cccc3Cl)c2c1)C(=O)NCCN`, the pIC50 was 4.62 in assay [1]; 7.15 in assay [2]; 5.33 in assay [3]; 6.66 in assay [4]; 7.60 in assay [5].

For `NCCNC(=O)[C@H](Cc1cccs1)NC(=O)[C@H](Cc1ccc(F)c(F)c1)NC(=O)Nc1ccc2c(CN3CCCC3)cn(Cc3c(Cl)cccc3Cl)c2c1`, in assay [6], the IC50 result is on record as “Not Active”. Moreover, the pIC50 is 7.10 in assay [2], 4.78 in assay [3], 6.57 in assay [4] and 7.46 in assay [5].

On to `NCC[C@H](NC(=O)[C@H](Cc1ccc(F)c(F)c1)NC(=O)Nc1ccc2c(CN3CCCC3)cn(Cc3c(Cl)cccc3Cl)c2c1)C(=O)NCCc1ccccc1`, for which the negative logarithm of the IC50 (pIC50) in assay [1] was 5.12; in assay [2] it was 6.80; in assay [3], 5.52; in assay [4], 6.09; in assay [5], 6.92.

Take `CCNCCNC(=O)[C@H](CCN)NC(=O)[C@H](Cc1ccc(F)c(F)c1)NC(=O)Nc1ccc2c(CN3CCCC3)cn(Cc3c(Cl)cccc3Cl)c2c1`: the pIC50 in assay [1] is 4.86; in assay [2], 6.89; in assay [4] it was 6.39; in assay [5], 7.05.

On to `NCCNC(=O)[C@H](Cc1ccncc1)NC(=O)[C@H](Cc1ccccc1F)NC(=O)Nc1ccc2c(CN3CCCC3)cn(Cc3c(Cl)cccc3Cl)c2c1`, for which, in assay [6], the IC50 result is “Not Active”. Further, the pIC50 in assay [2] was 7.30; in assay [4] it was 6.89; in assay [5], 7.15.

On to `NCCCNC(=O)[C@H](Cc1cnc[nH]1)NC(=O)[C@H](Cc1ccc(Cl)cc1)NC(=O)Nc1ccc2c(CN3CCCC3)cn(Cc3c(Cl)cccc3Cl)c2c1`, for which the pIC50 in assay [1] was 4.73; in assay [2], 7.15; in assay [3] it was 4.52; in assay [4], 6.39; in assay [5], 6.89.

For the compound `NCC[C@H](NC(=O)[C@H](Cc1ccc(F)c(F)c1)NC(=O)Nc1cccc2c(CN3CCCC3)cn(Cc3c(Cl)cccc3Cl)c12)C(=O)NCCN1CCCC1`, the IC50 entry in assay [6] is on record as “Not Active”. Also, the pIC50 in assay [2] was 5.37; in assay [4], 4.64; in assay [5] it was 4.66.

Consider `NCC[C@H](NC(=O)[C@H](Cc1ccc(F)c(F)c1)NC(=O)Nc1ccc2c(CN3CCCC3)cn(Cc3c(Cl)cccc3Cl)c2c1)C(=O)NCCN1CCCC1`, for which the IC50 entry in assay [6] is recorded as “Not Active”. Besides, the results for the pIC50 in assay [2] and in assay [4] were 7.30 and 6.34, respectively.

Turning to `CSC[C@H](NC(=O)[C@H](Cc1ccc(F)c(F)c1)NC(=O)Nc1ccc2c(CN3CCCC3)cn(Cc3c(Cl)cccc3Cl)c2c1)C(=O)NCCN`, the pIC50 in assay [1] is 4.73; in assay [2], 7.22; in assay [3] it was 4.57; in assay [4], 5.89; in assay [5], 7.22.

As to `NCC[C@H](NC(=O)[C@H](Cc1ccc(F)c(F)c1)NC(=O)Nc1ccc2c(CN3CCCC3)cn(Cc3c(Cl)cccc3Cl)c2c1)C(=O)NCc1ccccn1`, the pIC50 was 4.70 in assay [1]; 6.72 in assay [2]; 5.08 in assay [3]; 5.96 in assay [4]; 6.48 in assay [5].

With `NCC[C@H](NC(=O)[C@H](Cc1ccc(F)c(F)c1)NC(=O)Nc1ccc2c(CN3CCCC3)cn(Cc3c(Cl)cccc3Cl)c2c1)C(=O)NCc1ccco1`, the IC50 entry in assay [6] is recorded as “Not Active”. Also, the pIC50 in assay [2] is 7.15; in assay [3], 5.10; in assay [4], 6.11; in assay [5], 6.80.

As for `NCCCNC(=O)[C@H](CCN)NC(=O)[C@H](Cc1ccc(Cl)cc1)NC(=O)Nc1ccc2c(CN3CCCC3)cn(Cc3c(Cl)cccc3Cl)c2c1`, the pIC50 was 4.76 in assay [1]; 7.30 in assay [2]; 4.96 in assay [3]; 6.70 in assay [4]; 6.37 in assay [5].

Consider `NCC[C@H](NC(=O)[C@H](Cc1ccc(F)c(F)c1)NC(=O)Nc1ccc2c(CN3CCCC3)cn(Cc3c(Cl)cccc3Cl)c2c1)C(=O)NCc1ccccc1`, for which, in assay [6], the IC50 result was “Not Active”. The pIC50 in assay [2] is 6.80; in assay [4], 6.47; in assay [5], 6.36.

Take `NCC[C@H](NC(=O)[C@H](Cc1ccc(F)c(F)c1)NC(=O)Nc1cccc2c1c(CN1CCCC1)cn2Cc1c(Cl)cccc1Cl)C(=O)NCCN1CCCC1`: the IC50 result in assay [6] is listed as “Not Active”. Moreover, the values for the pIC50 in assay [2] and in assay [4] were 4.80 and 4.40, respectively.

With `NCC[C@H](NC(=O)[C@H](Cc1ccc(F)c(F)c1)NC(=O)Nc1ccc2c(CN3CCCC3)cn(Cc3c(Cl)cccc3Cl)c2c1)C(=O)NCc1cccs1`, the IC50 result in assay [6] is recorded as “Not Active”. Further, the pIC50 in assay [2] is 6.80; in assay [3], 5.15; in assay [4], 6.10; in assay [5], 6.64.

`COc1ccc(CNC(=O)[C@H](CCN)NC(=O)[C@H](Cc2ccc(F)c(F)c2)NC(=O)Nc2ccc3c(CN4CCCC4)cn(Cc4c(Cl)cccc4Cl)c3c2)cc1`: the pIC50 in assay [1] is 5.19; in assay [2], 7.00; in assay [3], 5.17; in assay [4], 6.15; in assay [5] it was 6.32.
